Assay results reported in the supplement of paper PMC9663587.

Key:
THZ1 = compound: CN(C)C/C=C/C(=O)Nc1ccc(C(=O)Nc2cccc(Nc3ncc(Cl)c(-c4c[nH]c5ccccc45)n3)c2)cc1 [THZ1]; test: GR value, 72 h; higher = faster growth (1 = untreated, <0 = killing);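 also: breast cancer and non-malignant breast epithelial lines, nine half-log doses, viable cells counted by Hoechst and LIVE/DEAD dye imaging versus time-zero plates and DMSO controls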
Neratinib/HKI272 = compound: CCOc1cc2ncc(C#N)c(Nc3ccc(OCc4ccccn4)c(Cl)c3)c2cc1NC(=O)/C=C/CN(C)C [Neratinib/HKI272]; test: as above
BSJ-03-123 = compound: CC(=O)c1c(C)c2cnc(Nc3ccc(N4CCN(CCOCCOCCOCCNC(=O)COc5cccc6c5C(=O)N(C5CCC(=O)NC5=O)C6=O)CC4)cn3)nc2n(C2CCCC2)c1=O [BSJ-03-123]; test: as above
[1] = compound: CC(=O)c1c(C)c2cnc(Nc3ccc(N4CCNCC4)cn3)nc2n(C2CCCC2)c1=O; test: as above
[2] = compound: CCc1cnn2c(NCc3ccc[n+]([O-])c3)cc(N3CCCC[C@H]3CCO)nc12; test: as above
[3] = compound: CCN1CCN(Cc2ccc(Nc3ncc(F)c(-c4cc(F)c5nc(C)n(C(C)C)c5c4)n3)nc2)CC1; test: as above
LEE011/Ribociclib [4] = compound: T1, CN(C)C(=O)c1cc2cnc(Nc3ccc(N4CCNCC4)cn3)nc2n1C1CCCC1 [LEE011/Ribociclib]; test: as above
Flavopiridol [5] = compound: T2, CN1CC[C@H](c2c(O)cc(O)c3c(=O)cc(-c4ccccc4Cl)oc23)[C@H](O)C1 [Flavopiridol]; test: as above
[6] = compound: CC(=O)c1c(C)c2cnc(Nc3ccc(N4CCNCC4)cn3)nc2n(C2CCCC2)c1=O; test: increase in dead-cell fraction, 72 h; higher = more death;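 also: breast cancer cell lines in 384-well plates, stained with Hoechst plus LIVE/DEAD far red dye and imaged, cells above an LDR intensity threshold counted dead, Hoechst-negative corpses included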
[7] = compound: CCN1CCN(Cc2ccc(Nc3ncc(F)c(-c4cc(F)c5nc(C)n(C(C)C)c5c4)n3)nc2)CC1; test: as above
LEE011/Ribociclib [8] = compound: T1, LEE011/Ribociclib; test: as above
Flavopiridol [9] = compound: T2, Flavopiridol; test: as above

HCC1143 gave a GR value (THZ1; 0.0001 µM) of 0.953 GR, a GR value (THZ1; 0.0003162 µM) of 1.04 GR and a GR value (THZ1; 0.001 µM) of 1 GR. It also gave a GR value (THZ1; 0.003162 µM) of 0.989 GR, a GR value (THZ1; 0.01 µM) of 0.908 GR and a GR value (THZ1; 0.03162 µM) of 0.303 GR. It also gave a GR value (THZ1; 0.1 µM) of -0.271 GR, a GR value (THZ1; 0.3162 µM) of -0.266 GR and a GR value (THZ1; 1 µM) of -0.31 GR. For the same cell line, the GR value (Neratinib/HKI272; 0.0003162 µM) was 0.964 GR, the GR value (Neratinib/HKI272; 0.001 µM) was 0.951 GR and the GR value (Neratinib/HKI272; 0.003162 µM) was 0.941 GR. It also gave a GR value (Neratinib/HKI272; 0.01 µM) of 0.864 GR, a GR value (Neratinib/HKI272; 0.03162 µM) of 0.876 GR and a GR value (Neratinib/HKI272; 0.1 µM) of 0.761 GR. The GR value (Neratinib/HKI272; 0.3162 µM) was 0.654 GR, the GR value (Neratinib/HKI272; 1 µM) was 0.458 GR and the GR value (Neratinib/HKI272; 3.162 µM) was 0.0904 GR. It also gave a GR value (BSJ-03-123; 0.001 µM) of 0.905 GR, a GR value (BSJ-03-123; 0.003162 µM) of 0.89 GR and a GR value (BSJ-03-123; 0.01 µM) of 0.906 GR. It also gave a GR value (BSJ-03-123; 0.03162 µM) of 0.858 GR, a GR value (BSJ-03-123; 0.1 µM) of 0.861 GR and a GR value (BSJ-03-123; 0.3162 µM) of 0.797 GR. It also gave a GR value (BSJ-03-123; 1 µM) of 0.613 GR, a GR value (BSJ-03-123; 3.162 µM) of 0.481 GR and a GR value (BSJ-03-123; 10 µM) of 0.028 GR. It also gave a GR value ([1]; 0.0003162 µM) of 0.997 GR, a GR value ([1]; 0.001 µM) of 1.01 GR and a GR value ([1]; 0.003162 µM) of 1.01 GR. For the same cell line, the GR value ([1]; 0.01 µM) was 0.955 GR, the GR value ([1]; 0.03162 µM) was 0.793 GR and the GR value ([1]; 0.1 µM) was 0.652 GR. For the same cell line, the GR value ([1]; 0.3162 µM) was 0.503 GR, the GR value ([1]; 1 µM) was 0.392 GR and the GR value ([1]; 3.162 µM) was 0.275 GR. For the same cell line, the GR value ([2]; 0.0001 µM) was 0.993 GR, the GR value ([2]; 0.0003162 µM) was 0.988 GR and the GR value ([2]; 0.001 µM) was 0.99 GR. It also gave a GR value ([2]; 0.003162 µM) of 1.04 GR, a GR value ([2]; 0.01 µM) of 0.95 GR and a GR value ([2]; 0.03162 µM) of -0.238 GR. The GR value ([2]; 0.1 µM) was -0.231 GR, the GR value ([2]; 0.3162 µM) was -0.252 GR and the GR value ([2]; 1 µM) was -0.228 GR. It also gave a GR value ([3]; 0.001 µM) of 0.881 GR, a GR value ([3]; 0.003162 µM) of 0.924 GR and a GR value ([3]; 0.01 µM) of 0.746 GR. The GR value ([3]; 0.03162 µM) was 0.604 GR, the GR value ([3]; 0.1 µM) was 0.406 GR and the GR value ([3]; 0.3162 µM) was 0.282 GR. For the same cell line, the GR value ([3]; 1 µM) was 0.178 GR, the GR value ([3]; 3.162 µM) was 0.142 GR and the GR value ([3]; 10 µM) was -0.0908 GR. For the same cell line, the GR value (LEE011/Ribociclib [4]; 0.001 µM) was 0.856 GR, the GR value (LEE011/Ribociclib [4]; 0.003162 µM) was 0.876 GR and the GR value (LEE011/Ribociclib [4]; 0.01 µM) was 0.848 GR. The GR value (LEE011/Ribociclib [4]; 0.03162 µM) was 0.74 GR, the GR value (LEE011/Ribociclib [4]; 0.1 µM) was 0.753 GR and the GR value (LEE011/Ribociclib [4]; 0.3162 µM) was 0.712 GR. It also gave a GR value (LEE011/Ribociclib [4]; 1 µM) of 0.72 GR, a GR value (LEE011/Ribociclib [4]; 3.162 µM) of 0.551 GR and a GR value (LEE011/Ribociclib [4]; 10 µM) of 0.311 GR. For the same cell line, the GR value (Flavopiridol [5]; 0.0001 µM) was 1 GR, the GR value (Flavopiridol [5]; 0.0003162 µM) was 1.04 GR and the GR value (Flavopiridol [5]; 0.001 µM) was 0.952 GR. For the same cell line, the GR value (Flavopiridol [5]; 0.003162 µM) was 0.964 GR, the GR value (Flavopiridol [5]; 0.01 µM) was 0.988 GR and the GR value (Flavopiridol [5]; 0.03162 µM) was 0.933 GR. For the same cell line, the GR value (Flavopiridol [5]; 0.1 µM) was 0.722 GR, the GR value (Flavopiridol [5]; 0.3162 µM) was 0.175 GR and the GR value (Flavopiridol [5]; 1 µM) was -0.31 GR. For the same cell line, the “increase in dead-cell fraction” value ([6]; 0.0003162 µM) was 0.0048, the “increase in dead-cell fraction” value ([6]; 0.001 µM) was 0.0021 and the “increase in dead-cell fraction” value ([6]; 0.003162 µM) was -0.0047. The “increase in dead-cell fraction” value ([6]; 0.01 µM) was -0.0052, the “increase in dead-cell fraction” value ([6]; 0.03162 µM) was -0.0059 and the “increase in dead-cell fraction” value ([6]; 0.1 µM) was -0.0023. For the same cell line, the “increase in dead-cell fraction” value ([6]; 0.3162 µM) was -0.0052, the “increase in dead-cell fraction” value ([6]; 1 µM) was -0.0085 and the “increase in dead-cell fraction” value ([6]; 3.162 µM) was 0.0036. The “increase in dead-cell fraction” value ([7]; 0.001 µM) was -0.0049, the “increase in dead-cell fraction” value ([7]; 0.003162 µM) was -0.0032 and the “increase in dead-cell fraction” value ([7]; 0.01 µM) was -0.0047. For the same cell line, the “increase in dead-cell fraction” value ([7]; 0.03162 µM) was 0.0015, the “increase in dead-cell fraction” value ([7]; 0.1 µM) was -0.003 and the “increase in dead-cell fraction” value ([7]; 0.3162 µM) was -0.0023. For the same cell line, the “increase in dead-cell fraction” value ([7]; 1 µM) was 0.0074, the “increase in dead-cell fraction” value ([7]; 3.162 µM) was 0.0254 and the “increase in dead-cell fraction” value ([7]; 10 µM) was 0.124. The “increase in dead-cell fraction” value (LEE011/Ribociclib [8]; 0.001 µM) was -0.0077, the “increase in dead-cell fraction” value (LEE011/Ribociclib [8]; 0.003162 µM) was 0.0012 and the “increase in dead-cell fraction” value (LEE011/Ribociclib [8]; 0.01 µM) was 0. For the same cell line, the “increase in dead-cell fraction” value (LEE011/Ribociclib [8]; 0.03162 µM) was 0.001, the “increase in dead-cell fraction” value (LEE011/Ribociclib [8]; 0.1 µM) was 0.0077 and the “increase in dead-cell fraction” value (LEE011/Ribociclib [8]; 0.3162 µM) was 0.0065. The “increase in dead-cell fraction” value (LEE011/Ribociclib [8]; 1 µM) was 0.0007, the “increase in dead-cell fraction” value (LEE011/Ribociclib [8]; 3.162 µM) was 0.009 and the “increase in dead-cell fraction” value (LEE011/Ribociclib [8]; 10 µM) was 0.0365. The “increase in dead-cell fraction” value (Flavopiridol [9]; 0.0001 µM) was -0.0098, the “increase in dead-cell fraction” value (Flavopiridol [9]; 0.0003162 µM) was -0.0008 and the “increase in dead-cell fraction” value (Flavopiridol [9]; 0.001 µM) was -0.0018. The “increase in dead-cell fraction” value (Flavopiridol [9]; 0.003162 µM) was 0.0048, the “increase in dead-cell fraction” value (Flavopiridol [9]; 0.01 µM) was 0.0022 and the “increase in dead-cell fraction” value (Flavopiridol [9]; 0.03162 µM) was -0.0053. For the same cell line, the “increase in dead-cell fraction” value (Flavopiridol [9]; 0.1 µM) was 0.0185, the “increase in dead-cell fraction” value (Flavopiridol [9]; 0.3162 µM) was 0.0656 and the “increase in dead-cell fraction” value (Flavopiridol [9]; 1 µM) was 0.228.
